Source: US12263248B2, “Compounds and compositions for intracellular delivery of therapeutic agents” (ModernaTX, Inc., priority 2018, dated 2025)

Legend:
[1] = N/P 3, i.v. bolus at 5 mpk, Sprague Dawley rats; 5 mg/kg
Experimental: Sprague Dawley rats were administered with nanoparticles of the disclosure via i.v. bolus at 5 mpk. The nanoparticle contained two mRNA encoding a broadly neutralizing influenza antibody in a 2:1 ratio.

[2] = Encapsulation efficiency of RNA (QUANT-IT RIBOGREEN RNA assay); type: physicochemical
Outline: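 RiboGreen fluorescence (ex ~480, em ~520 nm) compared between intact samples and Triton X-100-lysed samples after 15 min at 37 °C in TE buffer, pH 7.5. Percent free RNA is the blank-corrected intact/disrupted ratio.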

[3] = Particle size and polydispersity index of nanoparticle compositions (Zetasizer Nano ZS); type: physicochemical
Outline: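 Measured in 1×PBS by Zetasizer Nano ZS.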

Q: For CCCCCCCCC(CC)OC(=O)CCCCCCCN(CCCCCCCC(=O)OC(CCCCCCCC)CCCCCCCC)CCCNc1c(NC)c(=O)c1=O (stereo not shown) [Compound 301, Heptadecan-9-yl 8-((3-((2-(methylamino)-3,4-dioxocyclobut-1-en-1-yl)amino)propyl)(8-oxo-8-(undecan-3-yloxy)octyl)amino)octanoate], which “Clinical Observations” value [1] is on record?
A: signs of decreased activity

Q: And the “% EE” value ([2]; N/P 3 (Table 43))?
A: 86%

Q: What about the “% EE” value ([2]; N/P 5.8 (Table 43)) of the same compound?
A: 96%

Q: And the Diameter ([3]; N/P 3 (Table 43))?
A: 68 nm

Q: And the PDI ([3]; N/P 3 (Table 43))?
A: 0.09

Q: What about the Diameter ([3]; N/P 5.8 (Table 43)) of the same compound?
A: 69 nm

Q: What about the PDI ([3]; N/P 5.8 (Table 43)) of the same compound?
A: 0.24
